Paper PMC8389037, “Design, Synthesis and Antifungal Activity of Stapled Aurein1.2 Peptides” (Antibiotics, 2021)
Converted amounts (≈) assume the structure as drawn. Where a SMILES comes first, the peptide text is derived from it. Bridges are numbered along the chain shown (N, C = ends). [ ]: non-standard residue; d: D form. S5 = C=CCCC[C@](C)(N)C(=O)O

Columns and labels:
[1] = test system: chymotrypsin; experiment: Chymotrypsin digestion assay (proteolytic stability); settings: chymotrypsin 10 ng/µL in PBS 50 mM, 2 mM CaCl2, pH 7.4, room temperature; 130 µL of 1 mM DMSO peptide stock + 910 µL enzyme; sampled 0, 0.5, 1.5, 2, 4.5 h; HPLC at 214 nm
Protocol: Their susceptibility toward chymotrypsin degradation was tested in pH 7.4 PBS buffer at room temperature, containing 2 mM of CaCl2, and the percentages of remaining peptides were determined by HPLC. […] The corresponding HPLC charts for the determination of peptide residues are in the Supplementary Material.
Figure 4 Proteolytic stability of Aurein1.2, Sau-1, Sau-2, Sau-5, and Sau-9. They were dissolved in chymotrypsin solution (10 ng/μL, 50 mM, containing 2 mM of CaCl2, pH = 7.4). The percentages of the remaining peptides were monitored by HPLC.
Aurein1.2, Sau-1, Sau-2, Sau-5, and Sau-9, were dissolved in dimethyl sulfoxide to prepare a reserve solution with a concentration of 1 mM. Chymotrypsin was dissolved in PBS buffer (50 mM, containing 2 mM of CaCl2, pH = 7.4) to obtain a final concentration of 10 ng/µL. Then the 130 µL peptide solutions were incubated with 910 µL of chymotrypsin solution at room temperature. Then 130 µL of digestion mixture was taken at 0, 0.5, 1.5, 2 or 4.5 h, and then quenched with 50 µL of hydrochloric acid (1 mM). High-performance liquid chromatography (HPLC) was used to detect the residues of linear peptides and stapled Aurein1.2 peptides at 214 nm at a different time.

[2] = test system: C. krusei ATCC 2340; experiment: microbe, parasite or virus in culture
Protocol: (§1) The in vitro antifungal activities of the target peptides were evaluated according to protocols from the CLSI. The broth microdilution method was used to determine the minimum inhibitory concentration (MIC) of the target peptides in 96-well plates. Fluconazole was used as a reference drug.
(§2) Clinical isolates of C. albicans SC5314, 901, 904, C. tropicalis ATCC20026 and clinical isolate 895, C. glabrata ATCC1182 and clinical isolate 896, C. krusei ATCC2340, and C. parapsilosis ATCC22010 are from the collection library in the Drug Discovery and Development Center, Naval Medical University, Shanghai, China. C. auris clinical isolates are provided by Linqi Wang (Institute of Microbiology, Chinese Academy of Sciences) and Changbin Chen (Institut Pasteur of Shanghai, Chinese Academy of Sciences). All strains were cultured in YPD (1% yeast extract, 2% peptone, and 2% glucose) liquid medium overnight at 30 °C with shaking at 220 rpm.
(§3) The MICs of chemicals against all strains were determined by the micro broth dilution method according to the Clinical and Laboratory Standards Institute (Wayne PA, Reference Method for Broth Dilution Antifungal Susceptibility Testing of yeasts, approved Standard M27-A3, 3 rd ed; Clinical and Laboratory Standards Institute (CLSI): USA, 2008). The initial concentration of fungal suspension in RPMI 1640 medium was 3–5 × 10^3 colonies forming unit (CFU)/mL, which was added to 96-well plates. Peptides were prepared in dimethyl sulfoxide (DMSO) with an initial stored concentration of 6.4 mg/mL. Serial dilutions were made based on the CLSI M27 guide to obtaining the final concentrations ranging from 0.125 to 64 μg/mL for fluconazole and 0.25 to 128 μg/mL for peptides […]. The plates were incubated at 30 °C for 48 h. Optical density was measured at 630 nm, and background optical densities were subtracted from that of each well. The definition of MIC is the lowest concentration at which 80% of tested strains cannot grow.

[3] = test system: C. albicans 904; experiment: microbe, parasite or virus in culture
Protocol: as §1, §2, §3

[4] = test system: C. glabrata ATCC 1182; experiment: microbe, parasite or virus in culture
Protocol: as §1, §2, §3

[5] = test system: C. parapsilosis ATCC 22010; experiment: microbe, parasite or virus in culture
Protocol: as §1, §2, §3

[6] = test system: C. auris 918; experiment: microbe, parasite or virus in culture
Protocol: as §1, §2, §3

[7] = test system: C. auris 919; experiment: microbe, parasite or virus in culture
Protocol: as §1, §2, §3

[8] = test system: C. glabrata 896; experiment: microbe, parasite or virus in culture
Protocol: as §1, §2, §3

[9] = test system: C. tropicalis 895; experiment: microbe, parasite or virus in culture
Protocol: as §1, §2, §3

[10] = test system: C. albicans 901; experiment: microbe, parasite or virus in culture
Protocol: as §1, §2, §3

[11] = test system: C. albicans SC5314; experiment: microbe, parasite or virus in culture
Protocol: as §1, §2, §3

[12] = test system: C. tropicalis ATCC 20026; experiment: microbe, parasite or virus in culture
Protocol: as §1, §2, §3

[13] = Helicity by circular dichroism; type: physicochemical; settings: CD, 50 μM peptide in phosphate buffer/trifluoroethanol (7:3), 20 °C, calculated on [θ]222
Protocol: We use circular dichroism (CD) spectroscopy to probe the structural changes of Aurein1.2. According to the formula for calculating the helix reported in the previous relevant literature, we calculated the helicities of Aurein1.2 and the stapled peptides.
Figure 3 CD spectra of Aurein1.2 and its analogues. The peptides were dissolved in a solution of phosphate buffer and trifluoroethanol (7:3) and reached a concentration of 50 μM. The helicities of these peptides were calculated on the [θ]222. TEXT PRINTED IN THE PICTURE: Aurein1.2: helicity: 56.6% | Sau-1: helicity: 60.2% | Sau-2: helicity: 52.5% | Sau-3: helicity: 72.3% | Sau-4: helicity: 73.5% | Sau-5: helicity: 61.0% | Sau-6: helicity: 49.9% | Sau-7: helicity: 65.0% | Sau-8: helicity: 83.1% | Sau-9: helicity: 67.8%
The linear peptide and the stapled Aurein1.2 peptides were dissolved to form a sample with a concentration of 50 μM. The solvent consists of phosphate-buffered solution and trifluoroethanol (7:3). We used a […] quartz tube to obtain CD spectra on a Jasco-715 spectrophotometer at 20 °C. The measurement parameters were set up as follows: wavelength, 190–255 nm; speed, 20 nm min^−1; step resolution, 1.0 nm. And we accumulated the data twice. All spectral data were subtracted from the background. […] The helicity of each peptide was calculated according to the equation in the literature.

CC[C@H](C)[C@@H]1NC(=O)[C@@](C)(NC(=O)[C@H](CC(=O)O)NC(=O)[C@H](Cc2ccccc2)NC(=O)[C@H](CC(C)C)NC(=O)CNC(C)=O)CCCC=CCCC[C@@](C)(C(=O)N[C@@H](C)C(=O)N[C@@H](CCC(=O)O)C(=O)N[C@@H](CO)C(=O)N[C@@H](Cc2ccccc2)C(N)=O)NC(=O)[C@H](CCCCN)NC(=O)[C@H](CCCCN)NC1=O [Sau-5] (Ac-GLFD[S5]IKK[S5]AESF-NH2; staple 5-9)
proteolytic stability, remaining peptide [1]: remain relatively stable over time | Minimum inhibitory concentration (MIC) ([2]; ATCC 2340, 48 h): >128 mg/L | Minimum inhibitory concentration (MIC) ([3]; 904, 48 h): >128 mg/L | Minimum inhibitory concentration (MIC) ([4]; ATCC 1182, 48 h): >128 mg/L | Minimum inhibitory concentration (MIC) ([5]; ATCC 22010, 48 h): >128 mg/L | Minimum inhibitory concentration (MIC) ([6]; 918, 48 h): >128 mg/L | Minimum inhibitory concentration (MIC) ([7]; 919, 48 h): >128 mg/L | Minimum inhibitory concentration (MIC) ([8]; 896, 48 h): >128 mg/L | Minimum inhibitory concentration (MIC) ([9]; 895, 48 h): 16 mg/L (≈ 10.4 µM) | Minimum inhibitory concentration (MIC) ([10]; 901, 48 h): >128 mg/L | Minimum inhibitory concentration (MIC) ([11]; SC5314, 48 h): 16 mg/L (≈ 10.4 µM) | Minimum inhibitory concentration (MIC) ([12]; ATCC 20026, 48 h): >128 mg/L

CC[C@H](C)[C@H](NC(=O)[C@H](CC(=O)O)NC(=O)[C@H](Cc1ccccc1)NC(=O)[C@H](CC(C)C)NC(=O)CNC(C)=O)C(=O)N[C@H](C(=O)N[C@@H](CCCCN)C(=O)N[C@@H](CCCCN)C(=O)N[C@@]1(C)CCCC=CCCC[C@@](C)(C(N)=O)NC(=O)[C@H](CO)NC(=O)[C@H](CCC(=O)O)NC(=O)[C@H](C)NC1=O)[C@@H](C)CC [Sau-9] (Ac-GLFDIIKK[S5]AES[S5]-NH2; staple 9-13)
Minimum inhibitory concentration (MIC) ([2]; ATCC 2340, 48 h): >128 mg/L | Minimum inhibitory concentration (MIC) ([3]; 904, 48 h): >128 mg/L | Minimum inhibitory concentration (MIC) ([4]; ATCC 1182, 48 h): >128 mg/L | Minimum inhibitory concentration (MIC) ([5]; ATCC 22010, 48 h): >128 mg/L | Minimum inhibitory concentration (MIC) ([6]; 918, 48 h): >128 mg/L | Minimum inhibitory concentration (MIC) ([7]; 919, 48 h): >128 mg/L | Minimum inhibitory concentration (MIC) ([8]; 896, 48 h): >128 mg/L | Minimum inhibitory concentration (MIC) ([9]; 895, 48 h): 32 mg/L (≈ 21.2 µM) | Minimum inhibitory concentration (MIC) ([10]; 901, 48 h): >128 mg/L | Minimum inhibitory concentration (MIC) ([11]; SC5314, 48 h): >64 mg/L | Minimum inhibitory concentration (MIC) ([12]; ATCC 20026, 48 h): >128 mg/L

Ac-GLFDIIKKIAESF-NH2 [reference compound]
helicity [13]: 56.6% | proteolytic stability, remaining peptide [1]: disintegrated almost completely by 4.5 h | Minimum inhibitory concentration (MIC) ([2]; C. krusei ATCC 2340, RPMI 1640, 30 °C, 48 h, OD 630 nm, 80% inhibition): >128 mg/L | Minimum inhibitory concentration (MIC) ([3]; C. albicans 904, RPMI 1640, 30 °C, 48 h, OD 630 nm, 80% inhibition): >128 mg/L | Minimum inhibitory concentration (MIC) ([4]; C. glabrata ATCC 1182, RPMI 1640, 30 °C, 48 h, OD 630 nm, 80% inhibition): >128 mg/L | Minimum inhibitory concentration (MIC) ([5]; C. parapsilosis ATCC 22010, RPMI 1640, 30 °C, 48 h, OD 630 nm, 80% inhibition): >128 mg/L | Minimum inhibitory concentration (MIC) ([6]; C. auris clinical isolate 918, RPMI 1640, 30 °C, 48 h, OD 630 nm, 80% inhibition): >128 mg/L | Minimum inhibitory concentration (MIC) ([7]; C. auris clinical isolate 919, RPMI 1640, 30 °C, 48 h, OD 630 nm, 80% inhibition): >128 mg/L | Minimum inhibitory concentration (MIC) ([8]; C. glabrata clinical isolate 896, RPMI 1640, 30 °C, 48 h, OD 630 nm, 80% inhibition): >128 mg/L | Minimum inhibitory concentration (MIC) ([9]; C. tropicalis 895, fluconazole-resistant clinical isolate, RPMI 1640, 30 °C, 48 h, OD 630 nm, 80% inhibition): >128 mg/L | Minimum inhibitory concentration (MIC) ([10]; C. albicans 901, fluconazole-resistant clinical isolate, RPMI 1640, 30 °C, 48 h, OD 630 nm, 80% inhibition): >128 mg/L | Minimum inhibitory concentration (MIC) ([11]; C. albicans SC5314, RPMI 1640, 3–5 × 10^3 CFU/mL, 30 °C, 48 h, OD 630 nm, 80% inhibition): >64 mg/L | Minimum inhibitory concentration (MIC) ([12]; C. tropicalis ATCC 20026, RPMI 1640, 30 °C, 48 h, OD 630 nm, 80% inhibition): >128 mg/L
